Data as given in PMC12808100, “The non-catalytic DNA polymerase ε subunit is an NPF motif recognition protein” (Nature Communications, 2025).
Residues, ends and D or L forms follow the SMILES beside them.

Experiments:
[1] = target: T1, ASXL2 (Homo sapiens, UniProt Q76L83); experiment: nHU-MS peptide bait, prey ASXL2
T1 sequence (Q76L83 1-1435): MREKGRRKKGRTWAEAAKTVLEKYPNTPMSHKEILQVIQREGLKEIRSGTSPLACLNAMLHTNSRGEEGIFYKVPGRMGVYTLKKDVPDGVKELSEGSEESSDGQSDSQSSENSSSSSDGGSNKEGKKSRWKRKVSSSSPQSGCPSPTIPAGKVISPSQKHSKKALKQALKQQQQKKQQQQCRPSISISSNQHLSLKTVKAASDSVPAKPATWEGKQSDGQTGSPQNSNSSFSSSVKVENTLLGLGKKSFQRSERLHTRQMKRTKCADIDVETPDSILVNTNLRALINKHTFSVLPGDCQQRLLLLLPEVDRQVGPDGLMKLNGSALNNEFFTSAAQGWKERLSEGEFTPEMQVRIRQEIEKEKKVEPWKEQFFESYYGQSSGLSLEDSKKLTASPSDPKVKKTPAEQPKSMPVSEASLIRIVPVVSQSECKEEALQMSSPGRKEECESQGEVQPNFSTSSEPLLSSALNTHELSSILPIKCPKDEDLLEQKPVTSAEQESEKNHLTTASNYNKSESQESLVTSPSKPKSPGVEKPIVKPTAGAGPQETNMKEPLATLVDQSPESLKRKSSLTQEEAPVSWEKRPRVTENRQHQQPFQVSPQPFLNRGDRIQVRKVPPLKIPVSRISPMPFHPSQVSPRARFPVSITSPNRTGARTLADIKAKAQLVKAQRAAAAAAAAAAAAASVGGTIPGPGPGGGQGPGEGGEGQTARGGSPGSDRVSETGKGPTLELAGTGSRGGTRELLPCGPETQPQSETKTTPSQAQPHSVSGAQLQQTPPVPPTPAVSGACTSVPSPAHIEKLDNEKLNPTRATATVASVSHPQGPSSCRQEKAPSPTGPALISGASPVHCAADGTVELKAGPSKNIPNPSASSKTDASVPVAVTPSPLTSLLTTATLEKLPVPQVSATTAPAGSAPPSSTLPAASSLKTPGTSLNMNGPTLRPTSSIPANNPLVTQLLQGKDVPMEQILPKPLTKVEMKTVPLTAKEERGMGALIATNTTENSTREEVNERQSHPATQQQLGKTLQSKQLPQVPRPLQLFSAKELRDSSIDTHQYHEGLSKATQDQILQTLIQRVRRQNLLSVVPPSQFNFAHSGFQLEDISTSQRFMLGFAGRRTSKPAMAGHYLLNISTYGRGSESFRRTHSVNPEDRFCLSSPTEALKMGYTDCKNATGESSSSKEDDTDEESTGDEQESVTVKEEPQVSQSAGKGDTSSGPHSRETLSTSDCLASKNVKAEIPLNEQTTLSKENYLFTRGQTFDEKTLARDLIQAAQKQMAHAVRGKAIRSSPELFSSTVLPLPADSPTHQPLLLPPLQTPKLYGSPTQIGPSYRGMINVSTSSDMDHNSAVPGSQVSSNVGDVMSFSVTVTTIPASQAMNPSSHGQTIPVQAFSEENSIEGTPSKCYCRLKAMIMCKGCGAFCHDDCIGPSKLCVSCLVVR

[2] = target: T2, TXNL4B (Homo sapiens, UniProt Q9NX01); experiment: nHU-MS peptide bait, prey TXNL4B
T2 sequence (Q9NX01 1-149): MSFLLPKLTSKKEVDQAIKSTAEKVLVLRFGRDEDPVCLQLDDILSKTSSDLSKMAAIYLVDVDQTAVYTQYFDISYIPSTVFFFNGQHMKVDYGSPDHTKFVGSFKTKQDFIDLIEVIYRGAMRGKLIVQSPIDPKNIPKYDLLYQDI

[3] = target: T3, TXNRD3 (Homo sapiens, UniProt Q86VQ6); experiment: nHU-MS peptide bait, prey TXNRD3
T3 sequence (Q86VQ6 1-643): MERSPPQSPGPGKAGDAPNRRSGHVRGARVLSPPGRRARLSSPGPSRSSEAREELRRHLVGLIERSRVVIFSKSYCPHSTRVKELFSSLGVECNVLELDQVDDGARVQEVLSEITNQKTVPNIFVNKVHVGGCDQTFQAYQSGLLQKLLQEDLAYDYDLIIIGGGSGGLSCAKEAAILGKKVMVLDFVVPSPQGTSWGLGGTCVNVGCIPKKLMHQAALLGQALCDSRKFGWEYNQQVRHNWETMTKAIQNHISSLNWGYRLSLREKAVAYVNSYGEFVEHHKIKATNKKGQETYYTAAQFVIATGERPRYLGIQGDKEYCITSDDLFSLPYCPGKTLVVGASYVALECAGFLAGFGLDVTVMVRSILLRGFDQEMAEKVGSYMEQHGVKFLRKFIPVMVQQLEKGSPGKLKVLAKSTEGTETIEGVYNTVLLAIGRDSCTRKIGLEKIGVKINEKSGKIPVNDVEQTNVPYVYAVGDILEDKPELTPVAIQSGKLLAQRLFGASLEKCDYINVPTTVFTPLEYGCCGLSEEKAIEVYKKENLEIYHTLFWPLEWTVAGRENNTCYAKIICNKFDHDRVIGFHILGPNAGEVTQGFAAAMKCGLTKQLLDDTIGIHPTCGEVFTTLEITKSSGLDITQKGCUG

[4] = target: TMA7 (Homo sapiens, UniProt Q9Y2S6); experiment: nHU-MS peptide bait, prey TMA7
[5] = target: T4, GYPC (Homo sapiens, UniProt P04921); experiment: nHU-MS peptide bait, prey GYPC
T4 sequence (P04921 1-128): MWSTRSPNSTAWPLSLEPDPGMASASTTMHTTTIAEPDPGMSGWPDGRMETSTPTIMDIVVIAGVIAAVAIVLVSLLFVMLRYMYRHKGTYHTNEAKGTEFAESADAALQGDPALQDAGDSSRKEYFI

[6] = target: T5, UBE2N (Homo sapiens, UniProt P61088); experiment: nHU-MS peptide bait, prey UBE2N
T5 sequence (P61088 1-152): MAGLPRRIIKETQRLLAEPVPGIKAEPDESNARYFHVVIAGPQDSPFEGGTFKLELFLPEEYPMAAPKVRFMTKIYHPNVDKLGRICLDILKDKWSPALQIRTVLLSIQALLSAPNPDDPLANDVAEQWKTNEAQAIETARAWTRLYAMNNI

[7] = target: T6, EHD4 (Homo sapiens, UniProt Q9H223); experiment: nHU-MS peptide bait, prey EHD4
T6 sequence (Q9H223 1-541): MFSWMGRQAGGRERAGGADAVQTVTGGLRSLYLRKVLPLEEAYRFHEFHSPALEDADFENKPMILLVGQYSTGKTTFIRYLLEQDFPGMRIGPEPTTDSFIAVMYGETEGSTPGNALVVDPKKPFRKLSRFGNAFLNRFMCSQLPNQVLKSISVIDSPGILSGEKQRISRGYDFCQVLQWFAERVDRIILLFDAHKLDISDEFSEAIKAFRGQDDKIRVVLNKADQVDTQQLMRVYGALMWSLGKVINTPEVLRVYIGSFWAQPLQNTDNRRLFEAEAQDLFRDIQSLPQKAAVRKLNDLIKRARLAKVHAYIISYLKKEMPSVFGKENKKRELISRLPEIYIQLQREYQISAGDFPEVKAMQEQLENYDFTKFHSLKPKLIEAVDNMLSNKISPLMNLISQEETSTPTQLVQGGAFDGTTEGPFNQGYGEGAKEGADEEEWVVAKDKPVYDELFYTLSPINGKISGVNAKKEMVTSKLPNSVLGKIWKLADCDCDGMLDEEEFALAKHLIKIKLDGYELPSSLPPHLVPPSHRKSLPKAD

[8] = target: GNB4 (Homo sapiens, UniProt Q9HAV0); experiment: nHU-MS peptide bait, prey GNB4
Chain of GNB4 (Q9HAV0 2-340 limits assumed): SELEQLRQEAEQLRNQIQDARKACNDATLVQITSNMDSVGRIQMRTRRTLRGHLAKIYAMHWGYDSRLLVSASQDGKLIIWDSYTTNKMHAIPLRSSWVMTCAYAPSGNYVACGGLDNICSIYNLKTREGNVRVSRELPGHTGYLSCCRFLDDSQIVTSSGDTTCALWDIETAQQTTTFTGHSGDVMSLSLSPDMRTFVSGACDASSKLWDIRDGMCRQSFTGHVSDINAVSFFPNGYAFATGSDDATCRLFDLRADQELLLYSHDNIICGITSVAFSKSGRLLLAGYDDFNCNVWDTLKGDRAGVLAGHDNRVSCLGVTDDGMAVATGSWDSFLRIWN
Chain of GNB4 (P59768 2-68 partner limits assumed): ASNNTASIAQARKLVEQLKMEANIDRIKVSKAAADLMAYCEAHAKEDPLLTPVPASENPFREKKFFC

Chain of TMA7 (Q9Y2S6 whole entry): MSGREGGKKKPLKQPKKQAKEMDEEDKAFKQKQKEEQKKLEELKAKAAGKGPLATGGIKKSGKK

Row | Kd [4] | BI ([4]; prey TMA7, MS7_Varjosalo) | Kd [5] | BI ([5]; prey GYPC, MS4_Varjosalo) | Kd [6] | BI ([6]; prey UBE2N, MS4_Varjosalo) | Kd [7] | BI ([7]; prey EHD4, MS4_Varjosalo) | Kd [8] | BI ([8]; prey GNB4, MS7_Varjosalo) | SMILES | Kd [1] | BI ([1]; prey ASXL2, MS7_Varjosalo) | log2FC ([1]; prey ASXL2, MS7_Varjosalo) | Kd [2] | BI ([2]; prey TXNL4B, MS7_Varjosalo) | log2FC ([2]; prey TXNL4B, MS7_Varjosalo) | Kd [3] | BI ([3]; prey TXNRD3, MS7_Varjosalo) | log2FC ([3]; prey TXNRD3, MS7_Varjosalo)
1 |  |  |  |  |  |  |  |  |  |  | CC[C@H](C)[C@H](NC(=O)[C@H](CC(N)=O)NC(=O)[C@@H](NC(=O)[C@H](CCC(N)=O)NC(=O)[C@@H]1CCCN1C(=O)[C@@H](NC(=O)[C@H](CCC(N)=O)NC(=O)[C@H](CCCNC(=N)N)NC(=O)CCCCCNC(=O)CCCC[C@@H]1SC[C@@H]2NC(=O)N[C@@H]21)[C@@H](C)O)C(C)C)C(=O)N[C@@H](CC(N)=O)C(=O)N1CCC[C@H]1C(=O)N[C@@H](Cc1ccccc1)C(=O)N[C@H](C(=O)N1CCC[C@H]1C(=O)N[C@@H](CC(=O)O)C(=O)N[C@@H](CO)C(=O)N[C@@H](CC(C)C)C(=O)N[C@@H](CC(C)C)C(=O)N[C@@H](CC(C)C)C(=O)N[C@@H](Cc1c[nH]cn1)C(=O)N[C@@H](CO)C(N)=O)[C@@H](C)O [WEE1] (HELM PEPTIDE1{[O=C1N[C@H]2[C@H](CS[C@H]2CCCCC(=O)[*:2])N1].[O=C(CCCCCN[*:1])[*:2]].R.Q.T.P.Q.V.N.I.N.P.F.T.P.D.S.L.L.L.H.S.[am]}$$$$V2.0) | 5.55 µM | 0.643 | -1.486 | 7.39 µM | 0.575 | -1.234 | 6.85 µM | 0.5933 | -1.298
2 | 13.4 µM | 0.4275 | 18.6 µM | 0.35 | 20.8 µM | 0.3252 | 18.9 µM | 0.3455 | 12.7 µM | 0.4407 | CC(C)[C@H](NC(=O)[C@H](CCCCN)NC(=O)[C@H](Cc1ccccc1)NC(=O)[C@@H]1CCCN1C(=O)[C@H](CC(N)=O)NC(=O)[C@@H](NC(=O)[C@H](CCCNC(=N)N)NC(=O)CNC(=O)[C@H](CCC(N)=O)NC(=O)[C@H](CO)NC(=O)[C@@H](N)CO)C(C)C)C(=O)N[C@@H](CO)C(=O)N[C@@H](C)C(=O)N[C@@H](CO)C(=O)N[C@@H](CO)C(=O)N[C@@H](CCCCN)C(=O)N[C@@H](CCC(=O)O)C(=O)N1CCC[C@H]1C(=O)N[C@@H](C)C(N)=O [WDHD1 906-924] (H-SSQGRVNPFKVSASSKEPA-NH2) |  |  |  |  |  |  |  |  | 
